The target in assay [1] is T1, PRMT5 (Homo sapiens, UniProt O14744).
T1 construct: purchased Viva (custom protein)
Put plainly: PRMT5 IC50 assay in the presence of SAM as cofactor. In kind it is biochemical. In outline:
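For the SAM-containing format, dividing IC50 by 1.5 yields Ki; for the MTA-containing format the divisor is 13.5. A third format without cofactor gives IC50 alone.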

In a further assay the test system is HAP1 MTAP-intact. Put plainly: SDMA in-cell western assay, HAP1 MTAP-intact cell line. The note with it: Homo sapiens. Format: cell-based. In outline: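 Using an MTAP-isogenic HAP1 cell pair, inhibition of SDMA formation is read by in-cell western and expressed as IC50. MTAP-selectivity is assigned where the ratio between lines reaches 3 fold or greater.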
The test system of a further assay is HAP1 MTAP-deleted. Description: SDMA in-cell western assay, HAP1 MTAP-deleted cell line. In kind it is cell-based. The note with it: for IC50: Homo sapiens, HAP1 MTAP-deleted cell line; for MTAP Intact/Deleted Ratio: IC50 ratio HAP1 MTAP-intact / HAP1 MTAP-deleted. A digest of the protocol:
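In-cell western for SDMA marks; MTAP-deleted (null) HAP1 background; values given as IC50.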

The target of assay [2] is T1, PRMT5. Put plainly: PRMT5 IC50 assay with no cofactor. Format: biochemical. In outline: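 Cofactor-free, SAM and MTA formats; IC50 μM; Ki = IC50/1.5 for SAM, IC50/13.5 for MTA.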
The target of assay [3] is T1, PRMT5. Put plainly: PRMT5 IC50 assay in the presence of MTA as cofactor. Format: biochemical. The note with it: for IC50: PRMT5, MTA as cofactor. In outline:
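Three cofactor conditions are run: SAM-bound, MTA-bound and cofactor-free enzyme. IC50 is read from each; for the SAM and MTA arms it is divided by 1.5 and 13.5 respectively to give Ki.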

Where [4] appears, read: ratio between Ki in the presence of SAM and Ki in the presence of MTA.
Setting [5] is: ratio between the Ki in the presence of SAM and the Ki in the presence of MTA.

The structures appear in SMILES notation. Some results are limits rather than exact numbers.

T1 sequence (O14744 whole entry): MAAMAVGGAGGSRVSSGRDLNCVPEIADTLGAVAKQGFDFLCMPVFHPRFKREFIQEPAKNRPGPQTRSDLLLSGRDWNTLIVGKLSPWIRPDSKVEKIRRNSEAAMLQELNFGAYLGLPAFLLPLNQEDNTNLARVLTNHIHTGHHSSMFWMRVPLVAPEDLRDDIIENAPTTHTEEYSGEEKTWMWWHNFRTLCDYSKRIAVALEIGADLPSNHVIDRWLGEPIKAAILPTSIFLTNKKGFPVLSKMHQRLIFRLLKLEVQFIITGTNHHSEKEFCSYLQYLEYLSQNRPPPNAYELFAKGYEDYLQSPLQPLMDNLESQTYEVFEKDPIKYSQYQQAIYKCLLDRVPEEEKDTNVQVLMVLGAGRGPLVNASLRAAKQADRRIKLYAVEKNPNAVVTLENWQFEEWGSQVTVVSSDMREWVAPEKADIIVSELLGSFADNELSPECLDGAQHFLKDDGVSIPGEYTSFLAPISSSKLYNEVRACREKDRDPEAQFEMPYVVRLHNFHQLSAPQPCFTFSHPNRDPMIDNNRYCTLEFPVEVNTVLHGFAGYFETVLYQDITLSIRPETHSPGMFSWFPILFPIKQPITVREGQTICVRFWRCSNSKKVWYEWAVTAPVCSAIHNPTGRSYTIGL
T1 sequence (Q9BQA1 whole entry partner): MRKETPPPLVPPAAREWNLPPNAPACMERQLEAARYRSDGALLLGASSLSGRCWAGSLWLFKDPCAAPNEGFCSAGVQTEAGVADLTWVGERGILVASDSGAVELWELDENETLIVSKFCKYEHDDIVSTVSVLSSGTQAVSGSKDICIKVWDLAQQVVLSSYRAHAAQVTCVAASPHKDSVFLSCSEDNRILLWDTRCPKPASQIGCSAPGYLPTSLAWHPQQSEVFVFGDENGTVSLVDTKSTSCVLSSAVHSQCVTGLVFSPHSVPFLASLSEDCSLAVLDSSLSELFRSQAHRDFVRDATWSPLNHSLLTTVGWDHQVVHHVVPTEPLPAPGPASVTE

As for `Cc1c(OCc2cn[nH]c2)ccc2c1CCN(C[C@@H](O)CNC(=O)c1ccnc(NC3CCC3)c1)C2` [Compound 254, 2-(cyclobutylamino)-N-[(2S)-2-hydroxy-3-[5-methyl-6-(1H-pyrazol-4-ylmethoxy)-3,4-dihydro-1H-isoquinolin-2-yl]propyl]pyridine-4-carboxamide], the IC50 on PRMT5 [1] is 500 to 5000 nM; with HAP1 MTAP-intact it was 1 to 10 µM; in the assay on HAP1 MTAP-deleted, 1000 to 10000 nM; on PRMT5 [2] (read-out: No Co-factor IC50), 0.5 to 5 µM; on PRMT5 [3], 50 to 500 nM. Also, in the assay with HAP1 MTAP-deleted, the “MTAP Intact/Deleted Ratio” value was “C* (an IC50 ratio of less than 3 fold between the IC50 in the HAP1 MTAP-intact cell line and the HAP1 MTAP-deleted cell line)”. Also, the “SAM/MTA Ratio” value at PRMT5 [3] (setting [4]) was “A (a Ki ratio greater than or equal to 10 fold between the Ki in the presence of SAM and the Ki in the presence of MTA)”.
Regarding `CN(C)CCOc1cc(C(=O)NC[C@H](O)CN2CCc3cc(OCc4cnco4)ccc3C2)cc(NC2CCC2)n1` [Compound 315, (S)-2-(cyclobutylamino)-6-(2-(dimethylamino)ethoxy)-N-(2-hydroxy-3-(6-(oxazol-5-ylmethoxy)-3,4-dihydroisoquinolin-2(1H)-yl)propyl)isonicotinamide], the IC50 on PRMT5 [1] was 50 to 500 nM; in the assay on HAP1 MTAP-intact it was 1 to 10 µM; with HAP1 MTAP-deleted, < 1000 nM; at PRMT5 [2] (read-out: No Co-factor IC50), 0.5 to 5 µM; on PRMT5 [3], < 50 nM. In addition, the “MTAP Intact/Deleted Ratio” value with HAP1 MTAP-deleted was “C* (an IC50 ratio of less than 3 fold between the IC50 in the HAP1 MTAP-intact cell line and the HAP1 MTAP-deleted cell line)”. Also, the “SAM/MTA Ratio” value on PRMT5 [3] (setting [4]) is “A (a Ki ratio greater than or equal to 10 fold between the Ki in the presence of SAM and the Ki in the presence of MTA)”.
Consider `O=C(NC[C@H](O)CN1CCc2c(ccc(OCc3cnco3)c2Cl)C1)c1ccnc(NC2CCC(F)CC2)c1` (stereo partly drawn) [Compound 311, (S)—N-(3-(5-chloro-6-(oxazol-5-ylmethoxy)-3N-dihydroisoquinolin-2(1H)-yl)-2-hydroxypropyl)-2-((4-fluorocyclohexyl)amino)isonicotinamide], for which the IC50 at PRMT5 [1] was 50 to 500 nM; in the assay on HAP1 MTAP-intact, ≥ 10 µM; in the assay on HAP1 MTAP-deleted it was ≥ 10000 nM; at PRMT5 [2] (read-out: No Co-factor IC50), ≥ 5 µM; on PRMT5 [3] it was 50 to 500 nM. Besides, the “MTAP Intact/Deleted Ratio” value with HAP1 MTAP-deleted was “C* (an IC50 ratio of less than 3 fold between the IC50 in the HAP1 MTAP-intact cell line and the HAP1 MTAP-deleted cell line)”. Besides, the “SAM/MTA Ratio” value on PRMT5 [3] (setting [4]) is “A (a Ki ratio greater than or equal to 10 fold between the Ki in the presence of SAM and the Ki in the presence of MTA)”.
On to `CC(=O)N1CCC(Nc2cc(C(=O)NC[C@H](O)CN3CCc4c(ccc(OCc5cn[nH]c5)c4C)C3)ncn2)CC1` [Compound 253, 6-[(1-acetyl-4-piperidyl)amino]-N-[(2S)-2-hydroxy-3-[5-methyl-6-(1H-pyrazol-4-ylmethoxy)-3,4-dihydro-1H-isoquinolin-2-yl]propyl]pyrimidine-4-carboxamide], for which the IC50 fell in the range of 500 to 5000 nM on PRMT5 [1]; 1 to 10 µM in the assay with HAP1 MTAP-intact; 1000 to 10000 nM in the assay with HAP1 MTAP-deleted; 0.5 to 5 µM at PRMT5 [2] (read-out: No Co-factor IC50); 50 to 500 nM at PRMT5 [3]. Further, the “MTAP Intact/Deleted Ratio” value with HAP1 MTAP-deleted was “C* (an IC50 ratio of less than 3 fold between the IC50 in the HAP1 MTAP-intact cell line and the HAP1 MTAP-deleted cell line)”. Besides, the “SAM/MTA Ratio” value at PRMT5 [3] (setting [4]) was “A (a Ki ratio greater than or equal to 10 fold between the Ki in the presence of SAM and the Ki in the presence of MTA)”.
For `CC(=O)N1CC(Nc2cc(C(=O)NC[C@H](O)CN3CCc4c(ccc(OCc5cnco5)c4C)C3)ccn2)C1` [Compound 512, (S)-2-((1-acetylazetidin-3-yl)amino)-N-(2-hydroxy-3-(5-methyl-6-(oxazol-5-ylmethoxy)-3,4-dihydroisoquinolin-2(1H)-yl)propyl)isonicotinamide], the IC50 at PRMT5 [1] is 50 to 500 nM; in the assay with HAP1 MTAP-intact it was ≥ 10 µM; in the assay on HAP1 MTAP-deleted it was ≥ 10000 nM; at PRMT5 [2] it was ≥ 5 µM; on PRMT5 [3], 50 to 500 nM. Also, the “MTAP Intact/Deleted Ratio” value with HAP1 MTAP-deleted was “C* (an IC50 ratio of less than 3 fold between the IC50 in the HAP1 MTAP-intact cell line and the HAP1 MTAP-deleted cell line)”. On PRMT5 [3] (setting [5]), the “SAM/MTA Ratio” value was “A (a Ki ratio greater than or equal to 10 fold between the Ki in the presence of SAM and the Ki in the presence of MTA)”.
Regarding `Cc1ncoc1COc1ccc2c(c1)CCN(C[C@@H](O)CNC(=O)c1cc(NC3CCCC3)ncn1)C2` [Compound 333, 6-(cyclopentylamino)-N-[(2S)-2-hydroxy-3-{6-[(4-methyl-1,3-oxazol-5-yl)methoxy]-1,2,3,4-tetrahydroisoquinolin-2-yl}propyl]pyrimidine-4-carboxamide], the IC50 on PRMT5 [1] was 50 to 500 nM; with HAP1 MTAP-intact, < 1 µM; in the assay on HAP1 MTAP-deleted it was < 1000 nM; at PRMT5 [2] (read-out: No Co-factor IC50), ≥ 5 µM; at PRMT5 [3], 50 to 500 nM. For the same compound, in the assay on HAP1 MTAP-deleted, the “MTAP Intact/Deleted Ratio” value was “C* (an IC50 ratio of less than 3 fold between the IC50 in the HAP1 MTAP-intact cell line and the HAP1 MTAP-deleted cell line)”. In addition, the “SAM/MTA Ratio” value on PRMT5 [3] (setting [4]) is “A (a Ki ratio greater than or equal to 10 fold between the Ki in the presence of SAM and the Ki in the presence of MTA)”.
Regarding `CC(=O)N1CC(Nc2cc(C(=O)NC[C@H](O)CN3CCc4c(ccc(OCc5cnco5)c4Cl)C3)nc(N3CCOCC3)n2)C1` [Compound 352, (S)-6-((1-acetylazetidin-3-yl)amino)-N-(3-(5-chloro-6-(oxazol-5-ylmethoxy)-3A-dihydroisoquinolin-2(1H)-yl)-2-hydroxypropyl)-2-morpholinopyrimidine-4-carboxamide], the IC50 at PRMT5 [1] was 50 to 500 nM; with HAP1 MTAP-intact, ≥ 10 µM; in the assay on HAP1 MTAP-deleted it was 1000 to 10000 nM; on PRMT5 [2] (read-out: No Co-factor IC50), 0.5 to 5 µM; on PRMT5 [3], 50 to 500 nM. The “MTAP Intact/Deleted Ratio” value in the assay with HAP1 MTAP-deleted was “C* (an IC50 ratio of less than 3 fold between the IC50 in the HAP1 MTAP-intact cell line and the HAP1 MTAP-deleted cell line)”. Besides, the “SAM/MTA Ratio” value on PRMT5 [3] (setting [4]) was “A (a Ki ratio greater than or equal to 10 fold between the Ki in the presence of SAM and the Ki in the presence of MTA)”.
With `Cc1ncoc1COc1ccc2c(c1)CCN(C[C@@H](O)CNC(=O)c1ccnc(NC3CC4(CC4)C3)c1)C2` [Compound 621, (S)—N-(2-hydroxy-3-(6-((4-methyloxazol-5-yl)methoxy)-3,4-dihydroisoquinolin-2(1H)-yl)propyl)-2-(spiro[2.3]hexan-5-ylamino)isonicotinamide], the IC50 on PRMT5 [1] was 50 to 500 nM; with HAP1 MTAP-intact, < 1 µM; with HAP1 MTAP-deleted, < 1000 nM; at PRMT5 [2], 0.5 to 5 µM; at PRMT5 [3], 50 to 500 nM. Further, the “MTAP Intact/Deleted Ratio” value with HAP1 MTAP-deleted is “B* (an IC50 ratio greater than or equal to 3 fold but lower than 10 fold between the IC50 in the HAP1 MTAP-intact cell line and the HAP1 MTAP-deleted cell line)”. Moreover, on PRMT5 [3] (setting [5]), the “SAM/MTA Ratio” value is “A (a Ki ratio greater than or equal to 10 fold between the Ki in the presence of SAM and the Ki in the presence of MTA)”.
In the case of `CC(C)CC(=O)N1CC(Nc2cc(C(=O)NC[C@H](O)CN3CCc4cc(OCc5cnco5)ccc4C3)ccn2)C1` [Compound 474, N-[(2S)-2-hydroxy-3-[6-(oxazol-5-ylmethoxy)-3,4-dihydro-1H-isoquinolin-2-yl]propyl]-2-[[1-(3-methylbutanoyl)azetidin-3-yl]amino]pyridine-4-carboxamide], the concentration for half-maximal inhibition (IC50) on PRMT5 [1] was 50 to 500 nM; in the assay with HAP1 MTAP-intact it was 1 to 10 µM; in the assay with HAP1 MTAP-deleted it was 1000 to 10000 nM; against PRMT5 [2], ≥ 5 µM; on PRMT5 [3], 50 to 500 nM. Further, the “MTAP Intact/Deleted Ratio” value in the assay with HAP1 MTAP-deleted is “B* (an IC50 ratio greater than or equal to 3 fold but lower than 10 fold between the IC50 in the HAP1 MTAP-intact cell line and the HAP1 MTAP-deleted cell line)”. Moreover, the “SAM/MTA Ratio” value at PRMT5 [3] (setting [5]) is “A (a Ki ratio greater than or equal to 10 fold between the Ki in the presence of SAM and the Ki in the presence of MTA)”.
On to `Cc1ncoc1COc1ccc2c(c1)CCN(C[C@@H](O)CNC(=O)c1cc(NC3CCC3)ncn1)C2` [Compound 374, 6-(cyclobutylamino)-N-[(2S)-2-hydroxy-3-{6-[(4-methyl-1,3-oxazol-5-yl)methoxy]-1,2,3,4-tetrahydroisoquinolin-2-yl}propyl]pyrimidine-4-carboxamide], for which the 50% inhibitory concentration (IC50) is 50 to 500 nM on PRMT5 [1]; 1 to 10 µM in the assay with HAP1 MTAP-intact; < 1000 nM in the assay with HAP1 MTAP-deleted; ≥ 5 µM on PRMT5 [2] (read-out: No Co-factor IC50); 50 to 500 nM at PRMT5 [3]. Also, the “MTAP Intact/Deleted Ratio” value in the assay on HAP1 MTAP-deleted is “C* (an IC50 ratio of less than 3 fold between the IC50 in the HAP1 MTAP-intact cell line and the HAP1 MTAP-deleted cell line)”. For the same compound, the “SAM/MTA Ratio” value on PRMT5 [3] (setting [4]) is “A (a Ki ratio greater than or equal to 10 fold between the Ki in the presence of SAM and the Ki in the presence of MTA)”.

The record behind these values is patent US11986471B2, “Compounds and methods of use” (Tango Therapeutics, Inc., priority 2018, dated 2024).
